Data: EP2262764B1, “NOVEL N-BENZYLAMIDE SUBSTITUTED DERIVATIVES OF 2-(ACYLAMIDO)ACETIC ACID AND 2-(ACYLAMIDO)PROPIONIC ACIDS: POTENT NEUROLOGICAL AGENTS” (The University of North Carolina At Chapel Hill, priority 2008, dated 2009)
Read-outs that look alike come from different tables or passages of the source.

Assays:
[1] = tested on: maximal electroshock (MES)-induced seizures; experiment: maximal electroshock seizure (MES) test, mice ip; settings: for ED50: Mus musculus, ip
From the text: The structure-activity relationship of functionalized amino acids (1).

[2] = neurologic toxicity (Tox), rat po; type: in vivo; settings: in vivo, time in hours in brackets
[3] = tested on: maximal electroshock (MES)-induced seizures; experiment: maximal electroshock seizure (MES) test, rat po; settings: for ED50: Rattus norvegicus, po; for PI / MES, ED50: Rat (po); for PI: PI = TD50/ED50
[4] = neurologic toxicity (Tox), rotorod test, mice ip; settings: mouse, in vivo, ip, Tox, TD50, Mice (ip); time in hours in second brackets; [x; y] = between doses x and y
[5] = tested on: bi-phasic licking response; experiment: formalin test (0.5% formalin into hind paw, bi-phasic licking response); type: in vivo, mouse; settings: dose 16.0 (CH2C≡CH/H), 8.0 (CH3/N3), 20.0 (CH2C≡CH/N3) mg/kg
Description: Compounds of the present invention were active in treating pain in a formalin test carried out in accordance with standard techniques, as described in S. Hunskaar et al., J. Neurosci. Methods 14: 69-76 (1985). Briefly, 0.5% formalin is injected into the mouse hind paw to elicit a bi-phasic licking response, where the first acute phase is thought to correspond to the direct stimulation of peripheral fibers and the second (inflammatory) phase is caused by the release of inflammatory mediators.

neurologic toxicity [6] = experiment: neurologic toxicity (Tox), rat po; type: in vivo; settings: for TD50: in vivo
neurologic toxicity [7] = experiment: neurologic toxicity (Tox), rotorod test, mice ip; settings: for TD50: mouse, in vivo, ip, Tox, TD50, Mice (ip)
6 Hz seizure model = experiment: 6 Hz seizure model, mice ip
[8] = tested on: maximal electroshock (MES)-induced seizures; settings: rat, in vivo, po
[9] = read-out: MES, ED50, Rat (po), time in hours in brackets
[10] = read-out: MES, ED50, Rat (po), time of peak effect in hours in brackets in the cell
[11] = read-out: MES, ED50, Mice (ip), time in hours in second brackets, [x, y] = between doses x and y
[12] = read-out: MES, ED50, Mice (ip), time of peak effect in hours in brackets in the cell
[13] = read-out: MES, ED50, mice, intraperitoneally (ip), 95% confidence intervals in parentheses
[14] = time in hours in second brackets, [x, y] = between doses x and y
[15] = rotorod test, time of peak effect in hours in brackets in the cell
[16] = time in hours in brackets in the cell
[17] = Mice (ip), time in hours in second brackets, [x, y] = between doses x and y
[18] = read-out: MES ED50, values of the running text, mice (ip)

SMILES: C#CCOC[C@@H](NC(C)=O)C(=O)NCc1ccc(N=[N+]=[N-])cc1 [(R)-8]
- ED50 ([1]; read-out: MES, ED50): 20 mg/kg
- TD50 [2]: > 500 mg/kg
- ED50 [3, 9]: 45 mg/kg
- ED50 [3, 10]: 12 mg/kg
- TD50 [4]: 100 to 300 mg/kg

SMILES: COC[C@@H](NC(C)=O)C(=O)NCc1ccc(C(F)(F)F)cc1 [(R)-10]
- PI ([1]; Mice (ip), PI = TD50/ED50): ∼3.1
- ED50 [1, 11]: 30 to 100 mg/kg
- TD50 [2]: > 30 mg/kg
- ED50 [3, 9]: < 30 mg/kg
- TD50 [4]: 100 to 300 mg/kg

SMILES: C#CCOC[C@@H](NC(C)=O)C(=O)NCc1ccccc1 [(R)-7, (R)-N-Benzyl-2-acetamido-3-(prop-2-ynyloxy)propanamide]
- Area Under the Curve, % of Control ([5]; Acute phase): 48.42%
- Area Under the Curve, Drug Tested ([5]; Acute phase): 142.9
- Area Under the Curve, % of Control ([5]; Inflammatory phase): 54.99%
- Area Under the Curve, Drug Tested ([5]; Inflammatory phase): 468.3

SMILES: C#CCOC[C@@H](NC(C)=O)C(=O)NCc1ccccc1 [(R)-7]
- ED50 [1, 11]: 10 to 30 mg/kg
- ED50 [1, 12]: 16 mg/kg
- TD50 [2]: > 500 mg/kg
- ED50 [3, 9]: 16 mg/kg
- ED50 [3, 10]: 8 mg/kg
- TD50 [4]: 30 to 100 mg/kg

SMILES: C#CCOC[C@@H](NC(C)=O)C(=O)NCc1ccc(N=C=S)cc1 [(R)-9]
- TD50 [2]: > 30 mg/kg
- ED50 [3, 9]: > 30 mg/kg
- ED50 [3, 10]: > 30 mg/kg
- TD50 [4]: 68 mg/kg

SMILES: CC(=O)N[C@H](C(=O)NCc1ccccc1)c1ccccc1 [(S)-6]
- ED50 ([1]; read-out: MES, ED50): > 300 mg/kg

SMILES: CC(=O)N[C@@H](C)C(=O)NCc1ccccc1 [(S)-4]
- ED50 ([1]; read-out: MES, ED50): 550 mg/kg

SMILES: COCC#Cc1ccc(CNC(=O)[C@@H](COC)NC(C)=O)cc1 [(R)-6, (R)-2-Acetamido-3-methoxy-N-(4-(3-methoxyprop-1-ynyl)benzyl)propanamide, reference compound]
- PI ([1]; Mice (ip), PI = TD50/ED50): ∼2.8
- ED50 [1, 11]: 3 to 10 mg/kg
- ED50 [1, 13]: 26 mg/kg
- TD50 (neurologic toxicity [6]; time in hours in brackets): < 30 mg/kg
- PI [3]: > 30
- Tox (death) (neurologic toxicity [7]; Mice (ip), observation printed in the Tox, TD50 column): Death at 100
- TD50 (neurologic toxicity [7]; [14]): 10 to 30 mg/kg

SMILES: COC[C@@H](NC(C)=O)C(=O)NCc1ccc(OCc2cccc(F)c2)cc1 [(R)-3, (R)-2-Acetamido-N-(4-(3-fluorobenzyloxy)benzyl)-3-methoxypropanamide]
- PI ([1]; Mice (ip), PI = TD50/ED50): ∼9.3
- ED50 [1, 11]: 10 to 30 mg/kg
- TD50 (neurologic toxicity [6]; time in hours in brackets): > 30 mg/kg
- Tox, TD50 (neurologic toxicity [6]; time in hours in brackets): > 500 [0.5] mg/kg
- 6Hz, ED50 (given as fraction) (6 Hz seizure model; Mice (ip), […], dose not given): 2/4 [0.25]
- PI [3]: > 36

SMILES: COC[C@H](NC(C)=O)C(=O)NCc1ccc(OCc2cccc(F)c2)cc1 [(S)-3, (S)-2-Acetamido-N-(4-(3-fluorobenzyloxy)benzyl)-3-methoxypropanamide]
- ED50 [1, 11]: > 300 mg/kg
- TD50 (neurologic toxicity [7]; [14]): > 300 mg/kg

SMILES: COC[C@@H](NC(C)=O)C(=O)NCc1ccc(COc2cccc(F)c2)cc1 [(R)-11]
- PI ([1]; Mice (ip), PI = TD50/ED50): ∼2.8
- ED50 [1, 11]: 3 to 10 mg/kg
- Tox, TD50 (neurologic toxicity [6]; time in hours in brackets): > 30 [0.25 to 4.0] mg/kg
- ED50 [3, 9]: < 30 mg/kg
- TD50 [4]: 10 to 30 mg/kg

SMILES: C#CCOC[C@H](NC(C)=O)C(=O)NCc1ccc(N=C=S)cc1 [(S)-9, (S)-N-(4-Isothiocyanatobenzyl)-2-acetamido-3-(prop-2-ynyloxy)propanamide]
- ED50 ([1]; read-out: MES, ED50): > 300 mg/kg
- TD50 (neurologic toxicity [7]; [15]): > 300 mg/kg

SMILES: CCC1(c2ccccc2)C(=O)NC(=O)NC1=O [Phenobarbital, reference compound]
- ED50 [1, 11]: 22 mg/kg
- ED50 [1, 12]: 22 mg/kg
- Tox, TD50 (neurologic toxicity [6]; time in hours in brackets): 61 [0.5] mg/kg
- Tox, TD50 (neurologic toxicity [6]; [16]): 61 [0.5] mg/kg
- ED50 [3, 9]: 9.1 mg/kg
- ED50 [3, 10]: 9 mg/kg

SMILES: CCCC(CCC)C(=O)O [valproate]
- PI ([1]; Mice (ip), PI = TD50/ED50): 1.6
- PI ([1]; Mice (ip), protective index (TD50/ED50)): 1.6
- MES, ED50 [1, 17]: 270 [0.25] mg/kg
- ED50 ([1]; read-out: MES, ED50): 270 mg/kg
- PI [8]: 0.6
- MES, ED50 ([3]; time in hours in brackets): 490 [0.5] mg/kg
- ED50 ([3]; read-out: MES, ED50): 490 mg/kg

SMILES: O=C1NC(=O)C(c2ccccc2)(c2ccccc2)N1 [phenytoin, reference compound]
- TD50 (neurologic toxicity [6]; [16]): > 3000 mg/kg
- MES, ED50 ([3]; time in hours in brackets): 30 [4] mg/kg
- ED50 ([3]; read-out: MES, ED50): 30 mg/kg

SMILES: C#CCOC[C@H](NC(C)=O)C(=O)NCc1ccc(N=[N+]=[N-])cc1 [(S)-8, (S)-N-(4-Azidobenzyl)-2-acetamido-3-(prop-2-ynyloxy)propanamide]
- ED50 [1, 12]: 163 mg/kg
- TD50 (neurologic toxicity [6]; [16]): > 30 mg/kg
- ED50 [3, 10]: > 30 mg/kg
- TD50 (neurologic toxicity [7]; [15]): > 300 mg/kg

SMILES: C#CCOC[C@@H](NC(C)=O)C(=O)NCc1ccc(N=[N+]=[N-])cc1 [(R)-8, (R)-N-(4-Azidobenzyl)-2-acetamido-3-(prop-2-ynyloxy)propanamide]
- Area Under the Curve, % of Control ([5]; Acute phase): 58.28%
- Area Under the Curve, Drug Tested ([5]; Acute phase): 119.9
- Area Under the Curve, % of Control ([5]; Inflammatory phase): 78.17%
- Area Under the Curve, Drug Tested ([5]; Inflammatory phase): 414.3

SMILES: CC(=O)NC(C(=O)NCc1ccccc1)c1ccccc1 (racemic) [(R,S)-6]
- ED50 ([1]; read-out: MES ED50): 32 mg/kg
- ED50 ([1]; read-out: MES, ED50): 32 mg/kg

SMILES: COC[C@H](NC(C)=O)C(=O)NCc1ccc(N=[N+]=[N-])cc1 [(S)-5, (S)-N-(4-Azidobenzyl)-2-acetamido-3-methoxypropanamide, reference compound]
- ED50 [1, 11]: 100 to 300 mg/kg
- ED50 [1, 13]: > 25 mg/kg
- TD50 (neurologic toxicity [6]; time in hours in brackets): > 30 mg/kg
- ED50 (6 Hz seizure model; Mus musculus, ip, read-out: 6Hz, ED50): ~100 mg/kg
- ED50 [3, 9]: > 30 mg/kg
- Tox, TD50 (neurologic toxicity [7]; [17]): > 300 mg/kg

SMILES: C=CCOCC(NC(C)=O)C(=O)NCc1ccccc1 (racemic) [(R,S)-11]
- ED50 [1, 18]: 30 to 100 mg/kg

SMILES: CCOCC(NC(C)=O)C(=O)NCc1ccccc1 (racemic) [(R,S)-10]
- ED50 [1, 18]: 17 mg/kg

SMILES: C#CCOC[C@H](NC(C)=O)C(=O)NCc1ccccc1 [(S)-7, (S)-N-Benzyl-2-acetamido-3-(prop-2-ynyloxy)propanamide]
- ED50 [1, 12]: > 300 mg/kg
- TD50 (neurologic toxicity [6]; [16]): > 30 mg/kg
- ED50 [3, 10]: > 30 mg/kg
- TD50 (neurologic toxicity [7]; [15]): > 300 mg/kg

SMILES: CC(=O)NC(C)C(=O)NCc1ccccc1 (racemic) [(R,S)-4]
- ED50 ([1]; read-out: MES, ED50): 77 mg/kg

SMILES: COC[C@@H](NC(C)=O)C(=O)NCc1ccc(N=[N+]=[N-])cc1 [(R)-5, (R)-N-(4-Azidobenzyl)-2-acetamido-3-methoxypropanamide, reference compound]
- TD50 (neurologic toxicity [6]; time in hours in brackets): > 250 mg/kg
- Area Under the Curve, % of Control ([5]; Acute phase): 58.67%
- Area Under the Curve, Drug Tested ([5]; Acute phase): 131.4
- Area Under the Curve, % of Control ([5]; Inflammatory phase): 106.22%
- Area Under the Curve, Drug Tested ([5]; Inflammatory phase): 694.5
- PI [3]: > 64
- ED50 [3, 9]: 3.9 mg/kg
- TD50 (neurologic toxicity [7]; [14]): 46.2 mg/kg
